These results are taken from US10653756B2, “Identification of CD8+ T cells that are CD161hi and/or IL18R(α)hi and have rapid drug efflux capacity” (FRED HUTCHINSON CANCER RESEARCH CENTER, priority 2008, dated 2020).

Molecules are shown by their SMILES.

In data set [1] the test system is CMhi and EMhi CD8+ T cells. In words: Daunorubicin-induced apoptosis of sorted CM and EM subsets, Annexin V/DAPI. The class given is cell-based, human. The source says:
CMhi and EMhi and their non-effluxing IL-18Rα^lo/neg counterparts (CMlo and EMlo) were isolated using negative immunomagnetic selection of CD8^+ T cells with biotinylated antibodies to non-CD8^+ T cells, followed by surface labeling with fluorochrome-conjugated streptavidin to identify non-CD8^+ T cells, CD95, CD62L and IL-18Rα and sorting on a BD FacsARIA flow sorter. CM and EM CD8^+ T cells were defined as streptavidin^−/CD95^+/CD62L^+ or streptavidin^−/CD95^+/CD62L^−, respectively. CMhi and EMhi were defined by high expression of IL-18Rα. Effluxing and non-effluxing CM and EM subsets were cultured for 44 hours in the presence or absence of daunorubicin (an anthracycline chemotherapeutic agent, effluxed by the ABC-B1 cotransporter, MDR-1), with or without MDR-1 blockade with the peripheral benzodiazepine receptor antagonist, PK11195. Cultures were harvested, washed twice with cold PBS and stained with Annexin V and DAPI before analysis.

The subject of data set [2] is CM and EM CD8+ T lymphocytes. In words: Rh123 efflux assay with or without vinblastine, flow cytometry. Type of data set: cell-based, human. Conditions: PBMC loaded with 10 μg/ml Rh123, efflux 30 minutes at 37° C. In general terms: Flow cytometry measures light scatter and fluorescence of single cells or particles in a stream.
Protocol: PBMC were separated from fresh peripheral blood by density gradient centrifugation, washed in RPMI 1640/10% bovine serum albumin (herein known as efflux buffer) and resuspended at 1×10^6/ml in ice cold efflux buffer with 10 μg/ml Rh123. PBMC were incubated for 30 minutes on ice before washing three times in ice cold efflux buffer and resuspending in pre-warmed efflux buffer, with or without vinblastine, for 30 minutes at 37° C. At 30 minutes, PBMC were washed once in ice cold PBS/0.2% BSA (FACS buffer) and labeled with antibodies to CD4, CD16, TCRγδ, Vα24, CD3, CD8α, CD95, CD62L, CD161 and IL-18Rα for 20 minutes on ice. After washing in ice cold FACS buffer, samples were analyzed on a BD FacsARIA flow cytometer.
CM and EM subsets were identified as CD62L^+ or CD62L^− events, respectively, in the CD4^−/CD16^−/TCRγδ^−/Vα24^−/CD3^+/CD8^+/CD95^+ population. Rh123 fluorescence was identified with appropriate compensation and a 530/30 emission filter after laser excitation at 488 nm. Rh123-effluxing events were defined as those with fluorescence lower than the mean fluorescence intensity identified after culture in the presence of vinblastine efflux blockade.
The target of data set [3] is MDR-1 (Homo sapiens, UniProt P08183). Conditions: daunorubicin loaded at 2.5 μM, efflux 1 hour at 37° C.; vinblastine 25 μM; PK11195 and cyclosporine A data not shown.
MDR-1, sequence (P08183 whole entry): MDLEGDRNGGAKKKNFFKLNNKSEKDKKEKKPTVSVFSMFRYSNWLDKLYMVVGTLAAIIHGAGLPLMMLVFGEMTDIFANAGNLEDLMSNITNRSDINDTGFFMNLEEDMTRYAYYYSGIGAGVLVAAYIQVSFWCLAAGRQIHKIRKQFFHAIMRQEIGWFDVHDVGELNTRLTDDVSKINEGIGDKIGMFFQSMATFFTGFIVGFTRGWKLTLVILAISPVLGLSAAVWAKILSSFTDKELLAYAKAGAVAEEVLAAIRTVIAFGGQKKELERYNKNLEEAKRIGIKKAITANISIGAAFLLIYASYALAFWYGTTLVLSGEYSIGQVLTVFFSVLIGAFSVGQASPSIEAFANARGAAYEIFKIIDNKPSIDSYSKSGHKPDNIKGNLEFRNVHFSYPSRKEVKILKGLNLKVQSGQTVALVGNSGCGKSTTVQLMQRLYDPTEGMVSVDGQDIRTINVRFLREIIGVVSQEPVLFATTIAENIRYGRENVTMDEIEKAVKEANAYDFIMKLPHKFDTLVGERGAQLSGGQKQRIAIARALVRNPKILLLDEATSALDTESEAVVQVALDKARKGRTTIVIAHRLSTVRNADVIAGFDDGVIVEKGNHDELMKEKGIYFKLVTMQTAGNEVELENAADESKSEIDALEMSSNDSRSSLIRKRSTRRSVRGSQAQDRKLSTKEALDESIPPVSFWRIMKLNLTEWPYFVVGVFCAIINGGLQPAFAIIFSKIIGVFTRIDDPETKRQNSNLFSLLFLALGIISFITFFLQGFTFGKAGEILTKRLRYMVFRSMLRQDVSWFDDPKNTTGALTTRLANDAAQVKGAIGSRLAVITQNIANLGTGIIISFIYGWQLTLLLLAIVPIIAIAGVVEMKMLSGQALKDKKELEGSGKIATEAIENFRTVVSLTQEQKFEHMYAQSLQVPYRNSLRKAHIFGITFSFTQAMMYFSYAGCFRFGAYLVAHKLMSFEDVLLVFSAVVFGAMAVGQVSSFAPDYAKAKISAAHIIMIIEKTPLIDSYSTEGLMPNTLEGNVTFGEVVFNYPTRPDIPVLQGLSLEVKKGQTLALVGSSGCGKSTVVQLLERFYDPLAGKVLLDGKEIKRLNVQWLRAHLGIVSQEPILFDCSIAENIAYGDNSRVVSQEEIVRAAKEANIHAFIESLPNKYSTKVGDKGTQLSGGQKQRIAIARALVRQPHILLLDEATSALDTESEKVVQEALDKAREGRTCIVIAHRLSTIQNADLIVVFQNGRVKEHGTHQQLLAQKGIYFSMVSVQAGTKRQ

With `CCC(C)N(C)C(=O)c1cc2ccccc2c(-c2ccccc2Cl)n1` (centres unmarked) [PK11195], the “Viability of subsets cultured with PK11195 alone” value in data set [1] (PK11195 without daunorubicin, 44 hours culture) is recorded as “does not impair viability”. Further, the “Cell death of CMhi and EMhi on MDR-1 inhibition during daunorubicin culture” value in data set [1] (daunorubicin with PK11195, 44 hours culture) is “increased cell death”.
In the case of `COc1cccc2c1C(=O)c1c(O)c3c(c(O)c1C2=O)C[C@@](O)(C(C)=O)C[C@@H]3O[C@H]1C[C@H](N)[C@H](O)[C@H](C)O1` [daunorubicin], the “Apoptosis of CMhi and EMhi induced by culture with daunorubicin” value in data set [1] (daunorubicin 0.1 uM, 44 hours culture) is “resistant to apoptosis”.
For `CC[C@]1(O)C[C@@H]2CN(CCc3c([nH]c4ccccc34)[C@@](C(=O)OC)(c3cc4c(cc3OC)N(C)[C@H]3[C@@](O)(C(=O)OC)[C@H](OC(C)=O)[C@]5(CC)C=CCN6CC[C@]43[C@@H]65)C2)C1` [vinblastine], the “Rh123 efflux in the presence of vinblastine” value in data set [2] is “blocked”. Besides, the “Inhibition of daunorubicin efflux from CMhi and EMhi” value in data set [3] is listed as “inhibition of efflux”.
